Starred links: 1 amine or outer side, 2 acyl side, 3 side chain; linkers in the order of their positions; H or OH if unused. Positions of bridges follow the written chain, without caps; N, C: chain ends. Residues, ends and D or L forms follow the SMILES beside them. TBMB = c1c(C[*:1])cc(C[*:3])cc1C[*:2]

Here are results for one compound from article PMC7894522, “Structure Based Design of Bicyclic Peptide Inhibitors of RbAp48” (Angewandte Chemie (International Ed. in English), 2020).

A short description of data set [1]: Peptide stability in MDA-MB-231 whole cell lysate. Particulars: human, 37°C, HPLC, duplicate. It counts as in vitro ADME. The method, then:
To investigate whether the cyclization strategy influences the stability of the peptides we incubated 3, 8 and 33 in MDA‐MB‐231 cell lysate. […]
Fluorescence polarization assay […]
Isothermal Titration Calorimetry […]
Peptide stability was tested in whole cell lysate prepared from MDA-MB-231 cells using the freeze-thaw method. Peptides were dissolved in lysate (normalized to 5mg/ml protein using PBS) at 600 µM and incubated at 37°C. Samples were taken at different time points and mixed with an equal amount of MeOH containing 0.05 mg/ml ethylparaben as an i nternal standard. The samples were mixed and kept on ice for 15 minutes before centrifugation at 14000 rpm at 4 °C for 10 min. The supernatant was carefully removed and analyzed by HPLC. Peptide peaks were integrated and surface areas compared […]
Measurements were performed in duplicate.

Data set [2] deals with RbAp48 (Homo sapiens, UniProt Q09028). The data set is described as follows: Competitive fluorescence polarization (FP) assay using complex of peptide 1 and RbAp48. It counts as binding. Also noted: Full length RbAp48 was cloned; His tag followed by 3C cleavage site (N, cleaved yes); made in house; host or cells: Sf9 insect cells. Particulars: Table 1; competitive FP, tracer peptide 1 1 nM, RbAp48 15 nM, 20 mM Tris-HCl, 150 mM NaCl, 0.01% Tween-20, pH 7.5, 30 min room temperature; lower limit set by 15 nM protein; read-out: IC50. An outline of the steps:
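Sf9-expressed full-length RbAp48 (tag cleaved), 15 nM, displaced from 1 nM fluorescent peptide tracer in 20 mM Tris-HCl pH 7.5, 150 mM NaCl, 0.01% Tween-20. Read by FP (ex 485/em 535 nm) after 30 min at room temperature.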
On the technique in general: Fluorescence polarisation rises when a labelled molecule tumbles more slowly, as on binding a larger partner.

RbAp48, sequence (Q09028 whole entry): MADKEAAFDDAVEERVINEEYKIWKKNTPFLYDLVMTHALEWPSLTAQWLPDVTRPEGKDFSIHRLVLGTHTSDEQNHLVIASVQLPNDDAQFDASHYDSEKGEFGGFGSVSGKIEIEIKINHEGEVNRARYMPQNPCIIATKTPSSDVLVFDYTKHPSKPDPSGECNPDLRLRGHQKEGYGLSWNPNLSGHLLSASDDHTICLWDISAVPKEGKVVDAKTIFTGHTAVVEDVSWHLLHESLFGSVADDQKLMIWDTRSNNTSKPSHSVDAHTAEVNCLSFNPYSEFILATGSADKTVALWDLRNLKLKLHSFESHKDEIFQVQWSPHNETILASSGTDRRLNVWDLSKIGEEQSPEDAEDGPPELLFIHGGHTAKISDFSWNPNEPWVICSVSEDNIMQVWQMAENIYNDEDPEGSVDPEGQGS

A word on the IC50: it is the concentration at which inhibition is half-maximal. Turning to `CC(=O)N[C@H]1CSCc2cc3cc(c2)CSC[C@@H](C(=O)N[C@@H](C)C(N)=O)NC(=O)[C@@H]2CCCN2C(=O)[C@H](CCCCN)NC(=O)[C@H](Cc2ccc(O)cc2)NC(=O)[C@@H]2CCCN2C(=O)[C@H](CCCNC(=N)N)NC(=O)[C@H](CCCNC(=N)N)NC(=O)[C@H](C)NC(=O)[C@H](CSC3)NC(=O)[C@H](CCCNC(=N)N)NC(=O)[C@H](CCCCN)NC(=O)[C@H]([C@@H](C)O)NC1=O` [Peptide 33] (Ac-CTKRCARRPYKPCA-NH2; linker 1-5-13 via TBMB), the half-life at 600 µM in data set [1] (MDA-MB-231 whole cell lysate (freeze-thaw), 5 mg/ml protein in PBS, peptide 600 µM, read-out: t 1/2 (half-life)) is 1.57 h. Further, in data set [1] (T 60 min, MDA-MB-231 whole cell lysate 5 mg/ml protein, 600 µM, read-out: % left), the remaining at 1 h, 600 µM was 57.8%. The remaining at 2 h, 600 µM in data set [1] (T 120 min, MDA-MB-231 whole cell lysate 5 mg/ml protein, 600 µM, read-out: % left) was determined as 41.4%. For the same compound, in data set [1] (T 240 min, MDA-MB-231 whole cell lysate 5 mg/ml protein, 600 µM, read-out: % left), the remaining at 4 h, 600 µM turned out to be 0%. Besides, the concentration for half-maximal inhibition (IC50) in data set [2] stood at 12.3 ± 2 nM.
